# Tests used:
# Format in all cases: in vivo
# [1] = tested on: Alopecurus myosuroides (ALOMY); test: Post-emergence glasshouse herbicide test; details: POST Application, 1000 g/h, after 13 days
# Description: (§1) Seeds of a variety of test species are sown in standard soil in pots (Alopecurus myosuroides (ALOMY), Setaria faberi (SETFA), Echinochloa crus-galli (ECHCG), Solanum nigrum (SOLNI), Amaranthus retoflexus (AMARE), Ipomoea hederacea (IPOHE)). After cultivation for one day (pre-emergence) or after 8 days cultivation (post-emergence) under controlled conditions in a glasshouse (at 24/16° C., day/night; 14 hours light; 65% humidity), the plants are sprayed with an aqueous spray solution derived from the formulation of the technical active ingredient in acetone/water (50:50) solution containing 0.5% Tween 20 (polyoxyethelyene sorbitan monolaurate, CAS RN 9005-64-5). Compounds ae applied at 1000 g/h. The test plants are then grown in a glasshouse under controlled conditions in a glasshouse (at 24/16° C., day/night; 14 hours light; 65% humidity) and watered twice daily. After 13 days for pre and post-emergence, the test is evaluated for the percentage damage caused to the plant. The biological activities are shown in the following table on a five point scale (5=80-100%; 4=60-79%; 3=40-59%; 2=20-39%; 1=0-19%).
# [2] = tested on: Amaranthus retoflexus (AMARE); test: Post-emergence glasshouse herbicide test; details: POST Application, 1000 g/h, after 13 days
# Description: as §1
# [3] = tested on: Echinochloa crus-galli (ECHCG); test: Post-emergence glasshouse herbicide test; details: POST Application, 1000 g/h, after 13 days
# Description: as §1
# [4] = tested on: Ipomoea hederacea (IPOHE); test: Post-emergence glasshouse herbicide test; details: POST Application, 1000 g/h, after 13 days
# Description: as §1
# [5] = tested on: Solanum nigrum (SOLNI); test: Post-emergence glasshouse herbicide test; details: POST Application, 1000 g/h, after 13 days
# Description: as §1
# [6] = tested on: Setaria faberi (SETFA); test: Post-emergence glasshouse herbicide test; details: POST Application, 1000 g/h, after 13 days
# Description: as §1, with “Compounds ae applied at 1000 g/h.” left out
# [7] = tested on: Alopecurus myosuroides (ALOMY); test: Pre-emergence glasshouse herbicide test; details: PRE Application, 1000 g/h, after 13 days
# Description: as §1
# [8] = tested on: Amaranthus retoflexus (AMARE); test: Pre-emergence glasshouse herbicide test; details: PRE Application, 1000 g/h, after 13 days
# Description: as §1
# [9] = tested on: Echinochloa crus-galli (ECHCG); test: Pre-emergence glasshouse herbicide test; details: PRE Application, 1000 g/h, after 13 days
# Description: as §1
# [10] = tested on: Ipomoea hederacea (IPOHE); test: Pre-emergence glasshouse herbicide test; details: PRE Application, 1000 g/h, after 13 days
# Description: as §1
# [11] = tested on: Setaria faberi (SETFA); test: Pre-emergence glasshouse herbicide test; details: PRE Application, 1000 g/h, after 13 days
# Description: as §1
# [12] = tested on: Solanum nigrum (SOLNI); test: Pre-emergence glasshouse herbicide test; details: PRE Application, 1000 g/h, after 13 days
# Description: as §1
structure (smiles),measurement,setting,value
Cc1ccccc1-n1c(=O)c(C(=O)Nc2nnnn2C)nc2ccccc21 [Compound 5.034],"percentage damage caused to the plant, ALOMY",[1],4 (4=60-79%)
same,"percentage damage caused to the plant, AMARE",[2],5 (5=80-100%)
same,"percentage damage caused to the plant, ECHCG",[3],5 (5=80-100%)
same,"percentage damage caused to the plant, IPOHE",[4],5 (5=80-100%)
same,"percentage damage caused to the plant, SOLNI",[5],5 (5=80-100%)
same,"percentage damage caused to the plant, SETFA",[6],5 (5=80-100%)
same,"percentage damage caused to the plant, ALOMY",[7],5 (5=80-100%)
same,"percentage damage caused to the plant, AMARE",[8],5 (5=80-100%)
same,"percentage damage caused to the plant, ECHCG",[9],5 (5=80-100%)
same,"percentage damage caused to the plant, IPOHE",[10],5 (5=80-100%)
same,"percentage damage caused to the plant, SETFA",[11],5 (5=80-100%)
same,"percentage damage caused to the plant, SOLNI",[12],5 (5=80-100%)
Cn1nnnc1NC(=O)c1nc2ccccc2n(-c2cc(Cl)cc(Cl)c2)c1=O [Compound 5.017],"percentage damage caused to the plant, ALOMY",[1],5 (5=80-100%)
same,"percentage damage caused to the plant, AMARE",[2],5 (5=80-100%)
same,"percentage damage caused to the plant, ECHCG",[3],2 (2=20-39%)
same,"percentage damage caused to the plant, IPOHE",[4],4 (4=60-79%)
same,"percentage damage caused to the plant, SOLNI",[5],5 (5=80-100%)
same,"percentage damage caused to the plant, SETFA",[6],5 (5=80-100%)
same,"percentage damage caused to the plant, ALOMY",[7],4 (4=60-79%)
same,"percentage damage caused to the plant, AMARE",[8],5 (5=80-100%)
same,"percentage damage caused to the plant, ECHCG",[9],1 (1=0-19%)
same,"percentage damage caused to the plant, IPOHE",[10],4 (4=60-79%)
same,"percentage damage caused to the plant, SETFA",[11],5 (5=80-100%)
same,"percentage damage caused to the plant, SOLNI",[12],5 (5=80-100%)
Cn1nnnc1NC(=O)c1cc2cnc(Cl)cc2n(-c2ccccc2)c1=O [Compound 2.001],"percentage damage caused to the plant, ALOMY",[1],1 (1=0-19%)
same,"percentage damage caused to the plant, AMARE",[2],5 (5=80-100%)
same,"percentage damage caused to the plant, ECHCG",[3],1 (1=0-19%)
same,"percentage damage caused to the plant, IPOHE",[4],5 (5=80-100%)
same,"percentage damage caused to the plant, SOLNI",[5],5 (5=80-100%)
same,"percentage damage caused to the plant, SETFA",[6],1 (1=0-19%)
same,"percentage damage caused to the plant, ALOMY",[7],1 (1=0-19%)
same,"percentage damage caused to the plant, AMARE",[8],5 (5=80-100%)
same,"percentage damage caused to the plant, ECHCG",[9],1 (1=0-19%)
same,"percentage damage caused to the plant, IPOHE",[10],2 (2=20-39%)
same,"percentage damage caused to the plant, SETFA",[11],1 (1=0-19%)
same,"percentage damage caused to the plant, SOLNI",[12],4 (4=60-79%)
Cn1nnnc1NC(=O)c1cc2cc(F)cnc2n(-c2ccccc2)c1=O [Compound 6.001],"percentage damage caused to the plant, ALOMY",[1],3 (3=40-59%)
same,"percentage damage caused to the plant, AMARE",[2],5 (5=80-100%)
same,"percentage damage caused to the plant, ECHCG",[3],5 (5=80-100%)
same,"percentage damage caused to the plant, IPOHE",[4],5 (5=80-100%)
same,"percentage damage caused to the plant, SOLNI",[5],5 (5=80-100%)
same,"percentage damage caused to the plant, SETFA",[6],3 (3=40-59%)
same,"percentage damage caused to the plant, ALOMY",[7],1 (1=0-19%)
same,"percentage damage caused to the plant, AMARE",[8],4 (4=60-79%)
same,"percentage damage caused to the plant, ECHCG",[9],3 (3=40-59%)
same,"percentage damage caused to the plant, IPOHE",[10],4 (4=60-79%)
same,"percentage damage caused to the plant, SETFA",[11],1 (1=0-19%)
same,"percentage damage caused to the plant, SOLNI",[12],5 (5=80-100%)
COc1ccc(-n2c(=O)c(C(=O)Nc3nnnn3C)nc3ccccc32)cc1Cl [Compound 5.039],"percentage damage caused to the plant, ALOMY",[1],1 (1=0-19%)
same,"percentage damage caused to the plant, AMARE",[2],5 (5=80-100%)
same,"percentage damage caused to the plant, ECHCG",[3],3 (3=40-59%)
same,"percentage damage caused to the plant, IPOHE",[4],5 (5=80-100%)
same,"percentage damage caused to the plant, SOLNI",[5],5 (5=80-100%)
same,"percentage damage caused to the plant, SETFA",[6],1 (1=0-19%)
same,"percentage damage caused to the plant, ALOMY",[7],1 (1=0-19%)
same,"percentage damage caused to the plant, AMARE",[8],5 (5=80-100%)
same,"percentage damage caused to the plant, ECHCG",[9],3 (3=40-59%)
same,"percentage damage caused to the plant, IPOHE",[10],2 (2=20-39%)
same,"percentage damage caused to the plant, SETFA",[11],2 (2=20-39%)
same,"percentage damage caused to the plant, SOLNI",[12],5 (5=80-100%)
Cc1cccc(-n2c(=O)c(C(=O)Nc3nnnn3C)nc3ccccc32)c1 [Compound 5.011],"percentage damage caused to the plant, ALOMY",[1],2 (2=20-39%)
same,"percentage damage caused to the plant, AMARE",[2],5 (5=80-100%)
same,"percentage damage caused to the plant, ECHCG",[3],4 (4=60-79%)
same,"percentage damage caused to the plant, IPOHE",[4],5 (5=80-100%)
same,"percentage damage caused to the plant, SOLNI",[5],5 (5=80-100%)
same,"percentage damage caused to the plant, SETFA",[6],5 (5=80-100%)
same,"percentage damage caused to the plant, ALOMY",[7],2 (2=20-39%)
same,"percentage damage caused to the plant, AMARE",[8],5 (5=80-100%)
same,"percentage damage caused to the plant, ECHCG",[9],4 (4=60-79%)
same,"percentage damage caused to the plant, IPOHE",[10],5 (5=80-100%)
same,"percentage damage caused to the plant, SETFA",[11],4 (4=60-79%)
same,"percentage damage caused to the plant, SOLNI",[12],5 (5=80-100%)

# — patent publication US9179678B2, “Substituted [1,2,4]triazoles and substituted tetrazoles as herbicides” (SYNGENTA LIMITED, priority 2012, dated 2015)
